Tests used:
pigweed = test: Test A pre-/postemergence herbicide test; assay type: in vivo, Amaranthus retroflexus
Summary of the method: (§1)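 Visual 0–100 ratings (100 = complete control) made about 10 days after treatment, greenhouse-held plants compared with untreated controls. Treatments: postemergence sprays on one- to two-leaf plants (2–10 cm tall) and preemergence directed soil sprays after planting in loam–sand, chemicals formulated in non-phytotoxic solvent containing surfactant.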

ragweed = test: Test A pre-/postemergence herbicide test; assay type: in vivo, Ambrosia elatior
Summary of the method: as §1

barnyardgrass [1] = test: Test A pre-/postemergence herbicide test; assay type: in vivo, Echinochloa crus-galli
Summary of the method: as §1

ducksalad = test: Test B flooded paddy test; assay type: in vivo, Heteranthera limosa; conditions: Flood, scale of 0 to 100 where 0 is no effect and 100 is complete control
Summary of the method: (§2)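 Scoring: visual, compared with untreated controls, 0 = no effect through 100 = complete control, taken 13 to 15 days after treatment in the greenhouse. Compounds had been added to paddy water over soil flooded 3 cm deep at the plants' 2-leaf stage.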

barnyardgrass [2] = test: Test B flooded paddy test; assay type: in vivo, Echinochloa crus-galli; conditions: Flood, scale of 0 to 100 where 0 is no effect and 100 is complete control
Summary of the method: as §2

kochia = test: Test A pre-/postemergence herbicide test; assay type: in vivo, Kochia scoparia
Summary of the method: as §1

wheat = test: Test A pre-/postemergence herbicide test; assay type: in vivo, Triticum aestivum; conditions: Postemergence
Summary of the method: as §1

rice = test: Test B flooded paddy test; assay type: in vivo, Oryza sativa; conditions: Flood, scale of 0 to 100 where 0 is no effect and 100 is complete control
Summary of the method: as §2

corn = test: Test A pre-/postemergence herbicide test; assay type: in vivo, Zea mays; conditions: Postemergence
Summary of the method: as §1

ryegrass, Italian = test: Test A pre-/postemergence herbicide test; assay type: in vivo, Lolium multiflorum
Summary of the method: as §1

giant foxtail = test: Test A pre-/postemergence herbicide test; assay type: in vivo, Setaria faberii
Summary of the method: as §1

blackgrass = test: Test A postemergence herbicide test; assay type: in vivo, Alopecurus myosuroides
Summary of the method: (§3)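 Blackgrass and galium grown in pots of loam soil–sand blend, treated postemergence at 2–10 cm height, one- to two-leaf stage. Plants kept in greenhouse ~10 days, then visually rated for injury against untreated controls on a 0–100 scale (0 no effect, 100 complete control).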

sedge, umbrella = test: Test B flooded paddy test; assay type: in vivo, Cyperus difformis; conditions: Flood, scale of 0 to 100 where 0 is no effect and 100 is complete control
Summary of the method: as §2

galium = test: Test A postemergence herbicide test; assay type: in vivo, Galium aparine
Summary of the method: as §3

[3] = Postemergence, 125 g ai/ha, 0 to 100 scale, 0 no effect, 100 complete control
[4] = Postemergence, 500 g ai/ha, 0 to 100 scale (0 no effect, 100 complete control)
[5] = Preemergence, 125 g ai/ha, visual rating on 0 to 100 scale (0 no effect, 100 complete control)
[6] = preemergence, 500 g ai/ha, 0 to 100 scale
[7] = preemergence, 500 g ai/ha, 0 to 100 scale (0 no effect, 100 complete control)
[8] = 125 g ai/ha, 0 to 100 scale, 0 no effect, 100 complete control
[9] = 500 g ai/ha, 0 to 100 scale (0 no effect, 100 complete control)
[10] = 125 g ai/ha, visual rating, 0 to 100 scale, 0 no effect, 100 complete control, approximately 10 days, preemergence

Row | Structure (SMILES) | Plant response rating, Pigweed (pigweed; [3]) | Plant response rating, Pigweed (pigweed; [6]) | Plant response rating, Ragweed (ragweed; [3]) | Plant response rating, Ragweed (ragweed; [6]) | Plant response rating, Barnyardgrass (barnyardgrass [1]; [3]) | Plant response rating, Barnyardgrass (barnyardgrass [1]; [4]) | Plant response rating, Barnyardgrass (barnyardgrass [1]; [7]) | Plant response rating, Kochia (kochia; [3]) | Plant response rating, Kochia (kochia; [6]) | Plant response rating, Wheat (wheat; [8]) | Plant response rating, Corn (corn; [8]) | Plant response rating, Corn (corn; [9]) | Plant response rating, Ryegrass, Italian (ryegrass, Italian; [3]) | Plant response rating, Ryegrass, Italian (ryegrass, Italian; [6]) | Plant response rating, Foxtail, Giant (giant foxtail; [3]) | Plant response rating, Foxtail, Giant (giant foxtail; [6]) | Plant response rating, Blackgrass (blackgrass; [8]) | Plant response rating, Blackgrass (blackgrass; [9]) | Plant response rating, Galium (galium; [8]) | other results
1 | O=C1NCC(c2cccc(C(F)(F)F)c2)C1C(=O)Nc1ccccn1 (racemic) [Compound 110] | 0 | 0 | 0 | 0 | 50 | 90 | 90 | 0 | 0 | 0 | 0 | 20 | 20 | 0 | 80 | 90 | 0 | 70 | 20 | Plant response rating, Pigweed (pigweed; [4]): 0; Pigweed plant response rating (pigweed; [5]): 0; Plant response rating, Ragweed (ragweed; [4]): 0; Ragweed plant response rating (ragweed; [5]): 0; Barnyardgrass plant response rating (barnyardgrass [1]; [5]): 70; Plant response rating, Ducksalad (ducksalad; 1000 g ai/ha): 95; Plant response rating, Barnyardgrass (barnyardgrass [2]; 1000 g ai/ha): 0; Plant response rating, Kochia (kochia; [4]): 0; Kochia plant response rating (kochia; [5]): 0; Plant response rating, Wheat (wheat; [9]): 20; Plant response rating, Rice (rice; 1000 g ai/ha): 0; Plant response rating, Ryegrass, Italian (ryegrass, Italian; [4]): 40; Ryegrass, Italian plant response rating (ryegrass, Italian; [5]): 0; Plant response rating, Foxtail, Giant (giant foxtail; [4]): 90; Foxtail, Giant plant response rating (giant foxtail; [5]): 60; Plant response rating, Sedge, Umbrella (sedge, umbrella; 1000 g ai/ha): 50; Plant response rating, Galium (galium; [9]): 40
2 | O=C1NCC(c2ccc(F)cc2)C1C(=O)Nc1ccccc1OC(F)F (racemic) [Compound 118] | 0 | 0 | 0 | 0 | 0 | 60 | 70 | 10 | 0 | 0 | 0 | 0 | 0 | 0 | 50 | 90 | 0 | 0 | 50 | Plant response rating, Pigweed (pigweed; [10]): 0; Pigweed plant response rating (0 to 100 scale, 0 is no effect, 100 is complete control) (pigweed; Postemergence, 500 g ai/ha): 0; Plant response rating, Ragweed (ragweed; [10]): 0; Ragweed plant response rating (0 to 100 scale, 0 is no effect, 100 is complete control) (ragweed; Postemergence, 500 g ai/ha): 0; Plant response rating, Barnyardgrass (barnyardgrass [1]; [10]): 50; Plant response rating, Ducksalad (ducksalad; 500 g ai/ha): 100; Plant response rating, Barnyardgrass (barnyardgrass [2]; 500 g ai/ha): 20; Plant response rating, Kochia (kochia; [10]): 0; Kochia plant response rating (0 to 100 scale, 0 is no effect, 100 is complete control) (kochia; Postemergence, 500 g ai/ha): 50; Wheat plant response rating (0 to 100 scale, 0 is no effect, 100 is complete control) (wheat; 500 g ai/ha): 0; Plant response rating, Rice (rice; 500 g ai/ha): 0; Plant response rating, Ryegrass, Italian (ryegrass, Italian; [10]): 0; Ryegrass, Italian plant response rating (0 to 100 scale, 0 is no effect, 100 is complete control) (ryegrass, Italian; Postemergence, 500 g ai/ha): 0; Plant response rating, Foxtail, Giant (giant foxtail; [10]): 90; Foxtail, Giant plant response rating (0 to 100 scale, 0 is no effect, 100 is complete control) (giant foxtail; Postemergence, 500 g ai/ha): 80; Plant response rating, Sedge, Umbrella (sedge, umbrella; 500 g ai/ha): 0; Galium plant response rating (0 to 100 scale, 0 is no effect, 100 is complete control) (galium; 500 g ai/ha): 60

Source: US10294202B2, “Pyrrolidinones as herbicides” (FMC Corporation, priority 2013, dated 2019)
